These are literature values, as cited in patent US20130064803A1, “BIO-REPLENISHMENT (BioRep) FOR COGNITIVE HEALTH” (Naidu LP, priority 2011, published 2013).

The conditions of data set [1]: in vivo.

As to `C[S+](CC[C@H](N)C(=O)O)C[C@H]1O[C@@H](n2cnc3c(N)ncnc32)[C@H](O)[C@@H]1O` (some centres unmarked) [SAMe, S-adenosylmethionine], the “first-pass, share metabolized in the liver” value in data set [1] was “approximately 50%”.

In the case of `N[C@@H](Cc1c[nH]c2ccc(O)cc12)C(=O)O` [5-HTP, 5-hydroxy-tryptophan], the “share of an oral dose ending up in the bloodstream” value is “about 70%”.
